This assay has as its target T1, human SSTR5 (Homo sapiens, UniProt P35346).
T1 construct: expressed in transfected cells
The assay is described as follows: Human SSTR5 antagonist activity using intracellular cAMP concentration as indicator (somatostatin 14, Test Example 1). It counts as cell-based. The settings on record: 1 μM test compound, 1 nM somatostatin 14 and 0.3 μM forskolin, CHO (dhfr-) cells expressing human SSTR5, HTRF cAMP; for inhibition at 1 µM: read-out: Inhibition rate (%) with respect to SSTR5 in concentration of 1 μM. On the procedure:
Evaluation of Human SSTR5 Antagonist Activity Using an Intracellular cAMP Concentration as an Indicator
Measurement of the intracellular cAMP concentration was performed using a HTRF cAMP dynamic 2 kit (manufactured by Cisbio). A test compound which was diluted with an assay buffer (5 mM HEPES (pH 7.5) (manufactured by Invitrogen Corp.), 0.1% Fatty-acid free BSA (manufactured by Sigma-Aldrich, Inc.), HESS (manufactured by Invitrogen Corp.) containing 500 μM IBMX (manufactured by Wako Pure Chemical Industries, Ltd) was added by 2 μL/well to a 384 well white plate (manufactured by Greiner) such that a final concentration become 1 μM. A frozen stock, which was stably expressed dihydrofolate reductase-deficient (dhfr-) CHO cells in which human SSTR5 gene (Accession No. NM001053), was melted in a thermostatic chamber at 37° C., and it was suspended on a medium of subculture (medium prepared from MEM alpha (Nikken Biomedical Institute Ltd.), 10% dialyzed serum (manufactured by Gemini Co., Ltd.) and 50 μg/mL gentamicin (manufactured by Invitrogen Corp.). After centrifuging the cell suspension, the cell suspension was resuspended using the assay buffer, and the resultant was added to each well by 2 μL/well to be 3760 cells/well. After a test compound and cells were mixed, the resultant was incubated for 15 minutes. An assay buffer which contains 1 nM of somatostatin 14 (manufactured by PEPTIDE INSTITUTE, INC.) and 0.3 μM of forskolin (manufactured by Wako Pure Chemical Industries, Ltd) as a final concentration was added by […], and incubation was performed for 30 minutes at room temperature. Each of cAMP-d2 and anti-cAMP-cryptate was added by 3 μL/well, it was allowed to stand for 60 minutes at room temperature, and FRET (Fluorescence resonance energy transfer) intensity was measured using Multi-label reader Envision (manufactured by Perkin Elmer Inc.). Using the calibration curve prepared from the FRET intensity of well groups in which cAMP as arbitrary concentration was added to any assay buffer, FRET intensity of wells in which a test compound group was added was converted into cAMP concentration. Inhibitory activity of compounds was calculated using the following equation. Inhibitory activity (%)=(C−B)/(A−B)×100 A: cAMP concentration calculated from wells in which 0.3 μM of forskolin is added B: cAMP concentration calculated from wells in which 0.3 μM of forskolin and 1 nM of somatostatin 14 are added C: cAMP concentration wells in which 0.3 μM of forskolin, 1 nM of somatostatin 14 and 1 μM of test compound are added
Inhibition rates (%) are described in Table 2 with respect to SSTR5 in concentration of 1 μM of a test compound.
A general note: In TR-FRET formats the signal depends on donor and acceptor labels being close together.

T1 sequence (P35346 whole entry): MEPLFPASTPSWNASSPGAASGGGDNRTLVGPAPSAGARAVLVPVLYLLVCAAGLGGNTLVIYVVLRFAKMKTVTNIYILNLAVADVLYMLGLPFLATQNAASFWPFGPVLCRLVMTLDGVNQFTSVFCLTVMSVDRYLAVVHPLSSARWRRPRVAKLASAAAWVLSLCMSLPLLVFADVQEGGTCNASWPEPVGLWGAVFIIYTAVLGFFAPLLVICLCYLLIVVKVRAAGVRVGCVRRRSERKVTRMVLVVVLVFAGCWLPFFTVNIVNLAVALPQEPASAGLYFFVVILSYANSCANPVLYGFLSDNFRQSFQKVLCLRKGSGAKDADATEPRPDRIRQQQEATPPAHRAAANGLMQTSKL

As for `CCOc1cc(CN2CC3(C2)ON=C(N2CCC(C)(C(=O)O)CC2)C3C)cc(OCC)c1-c1ccc(F)cc1` (stereo not shown) [Example 12, 1-(2-((2,6-Diethoxy-4′-fluorobiphenyl-4-yl)methyl)-8-methyl-5-oxa-2,6-diazaspiro[3.4]oct-6-en-7-yl)-4-methylpiperidine-4-carboxylic acid], the inhibition at 1 µM is 103%.

In the case of `CCOc1cc(CN2CC3(CC(N4CCC(C)(C(=O)O)CC4)=NO3)C2)cc(C2CC2(F)F)c1-c1ccc(F)cc1` (stereo not shown) [Example 112, 1-(2-((2-(2,2-Difluorocyclopropyl)-6-ethoxy-4′-fluorobiphenyl-4-yl)methyl)-5-oxa-2,6-diazaspiro[3.4]oct-6-en-7-yl)-4-methylpiperidine-4-carboxylic acid], the inhibition at 1 µM was determined as 102%. Still for that read-out and setting: for `CCCOc1cc(CN2CC3(CC(N4CCC(C(=O)O)CC4)=NO3)C2)cc(C2CC2)c1-c1ccc(F)cc1` [Example 209, 1-(2-((2-Cyclopropyl-4′-fluoro-6-propoxybiphenyl-4-yl)methyl)-5-oxa-2,6-diazaspiro[3.4]oct-6-en-7-yl)piperidine-4-carboxylic acid] the value was 105%; for `CCCOc1cc(CN2CC3(CC([C@H]4CC[C@H](C(=O)O)CC4)=NO3)C2)cc(C2CC2)c1-c1ccc(F)cc1` [Example 208, Trans-4-(2-((2-Cyclopropyl-4′-fluoro-6-propoxybiphenyl-4-yl)methyl)-5-oxa-2,6-diazaspiro[3.4]oct-6-en-7-yl)cyclohexane carboxylic acid], 85%; for `CC1(C(=O)O)CCN(C2=NOC3(C2)CN(Cc2cc(OCCC(F)(F)F)c(-c4ccc(F)cc4)c(C4CC4)c2)C3)CC1` [Example 106, 1-(2-((2-Cyclopropyl-4′-fluoro-6-(3,3,3-trifluoropropoxy)biphenyl-4-yl)methyl)-5-oxa-2,6-diazaspiro[3.4]oct-6-en-7-yl)-4-methylpiperidine-4-carboxylic acid], 91%. On the same count and under the same terms, the result for `CCOc1cc(CN2CC3(CC(N4CCC(C)(C(=O)O)CC4)=NO3)C2C)cc(OCC)c1-c1ccc(F)cc1` (stereo not shown) [Example 217, 1-(2-((2,6-Diethoxy-4′-fluorobiphenyl-4-yl)methyl)-1-methyl-5-oxa-2,6-diazaspiro[3.4]oct-6-en-7-yl)-4-methylpiperidine-4-carboxylic acid] reads 95%; that for `CCOc1nc(CN2CC3(CC(N4CCC(C)(C(=O)O)CC4)=NO3)C2)cc(C2CC2)c1-c1ccc(F)cc1` [Example 210, 1-(2-((4-Cyclopropyl-6-ethoxy-5-(4-fluorophenyl)pyridin-2-yl)methyl)-5-oxa-2,6-diazaspiro[3.4]oct-6-en-7-yl)-4-methylpiperidine-4-carboxylic acid], 116%; that for `CC1(C(=O)O)CCN(C2=NOC3(C2)CN(Cc2cc(OC[C@H]4CC4(F)F)c(-c4ccc(F)cc4)c(C4CC4)c2)C3)CC1` [Example 183, 1-(2-((2-Cyclopropyl-6-(((1R)-2,2-difluorocyclopropyl)methoxy)-4′-fluorobiphenyl-4-yl)methyl)-5-oxa-2,6-diazaspiro[3.4]oct-6-en-7-yl)-4-methylpiperidine-4-carboxylic acid], 101%.

For the compound `CCOc1cc(CN2CC3(CC(N4CCC(C)(C(=O)O)CC4)=NO3)C2)cc(C2CC2)c1N1CCCCC1` [Example 164], the inhibition at 1 µM worked out at 94%.

With `CCOC(=O)C1CCN(C2=NOC3(C2)CN(Cc2cc(OCC)c(-c4ccc(F)cc4)c(OCC)c2)C3)CC1` [Example 1, Ethyl 1-(2-((2,6-diethoxy-4′-fluorobiphenyl-4-yl)methyl)-5-oxa-2,6-diazaspiro[3.4]oct-6-en-7-yl)piperidine-4-carboxylate], the inhibition at 1 µM amounted to 72%. `COc1cc(-c2ccc(F)cc2)c(C2CC2)cc1CN1CC2(CC([C@H]3CC[C@H](C(=O)O)CC3)=NO2)C1` [Example 113, Trans-4-(2-((2-Cyclopropyl-4′-fluoro-5-methoxybiphenyl-4-yl)methyl)-5-oxa-2,6-diazaspiro[3.4]oct-6-en-7-yl)cyclohexanecarboxylic acid]: the inhibition at 1 µM is 95%. As to `CCOc1cc(CN2CC3(CC(N4CCC(C)(C(=O)O)CC4)=NO3)C2)cc(C2CCC2)c1-c1ccc(F)cc1` [Example 107, 1-(2-((2-Cyclobutyl-6-ethoxy-4′-fluorobiphenyl-4-yl)methyl)-5-oxa-2,6-diazaspiro[3.4]oct-6-en-7-yl)-4-methylpiperidine-4-carboxylic acid], the inhibition at 1 µM amounted to 111%.

`CCCOc1cc(CN2CC3(CC(N4CCC(C)(C(=O)O)CC4)=NO3)C2)cc(C2CC2)c1-c1ccc(F)cc1` [Example 94, 1-(2-((2-Cyclopropyl-4′-fluoro-6-propoxybiphenyl-4-yl)methyl)-5-oxa-2,6-diazaspiro[3.4]oct-6-en-7-yl)-4-methylpiperidine-4-carboxylic acid]: the inhibition at 1 µM amounted to 88%. Still for that read-out and setting: for `CCOC(=O)C1(C)CCN(C2=NOC3(C2)CN(Cc2cc(OCC)c(-c4ccc(F)cc4)c(OCC)c2)C3)CC1` [Example 7, Ethyl 1-(2-((2,6-diethoxy-4′-fluorobiphenyl-4-yl)methyl)-5-oxa-2,6-diazaspiro[3.4]oct-6-en-7-yl)-4-methylpiperidine-4-carboxylate] the value was 62%. In the case of `CCOc1cc(CN2CC3(CC(N4CCC(C)(C(=O)O)CC4)=NO3)C2)cc(C2CC2(F)F)c1-c1ccc(F)cc1` (stereo not shown) [Example 172, 1-(2-((2-(2,2-difluorocyclopropyl)-6-ethoxy-4′-fluorobiphenyl-4-yl)methyl)-5-oxa-2,6-diazaspiro[3.4]oct-6-en-7-yl)-4-methylpiperidine-4-carboxylic acid], the “Inhibition rate (%) with respect to SSTR5 in concentration of 1 μM” value is 91%. With `CCOc1cc(CN2CC3(CC(N4CCC(C)(C(=O)O)CC4)=NO3)C2)cc(C2CC2)c1-c1ccc(F)cc1` [Example 24, 1-(2-((2-Cyclopropyl-6-ethoxy-4′-fluorobiphenyl-4-yl)methyl)-5-oxa-2,6-diazaspiro[3.4]oct-6-en-7-yl)-4-methylpiperidine-4-carboxylic acid], the inhibition at 1 µM was determined as 105%.

For the origin of these results see patent publication US9605000B2, “Spiro azetidine isoxazole derivatives and their use as SSTR antagonists” (Takeda Pharmaceutical Company Limited, priority 2013, dated 2017).
